From PubChem BioAssay AID248 (DTP/NCI, 2004)
“And” between values parts separate entries of the source, which are not always exact repeats. Identical values can stand only once. Inconclusive results and toxic doses are left out. No stated cut-off is given here; in the data, active means T/C of 150% or more; inactive means T/C below 125%.

Test system: L1210 leukemia ip in BDF1 mice, survival T/C
Assay: NCI In Vivo Anticancer Drug Screen. Data for tumor model L1210 Leukemia (intraperitoneal) in B6D2F1 (BDF1) mice
Settings: endpoint: mean survival time, higher = longer survival
How it was run: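 Each compound was tested against a transplantable tumor grown in mice. The endpoint was survival, with treated animals benchmarked against vehicle controls as a simple ratio.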

[1] = dose: 100.0 mg/kg/injection, schedule: Q01DX009 (ip), vehicle: saline sonified
[2] = dose: 100.0 mg/kg/injection, schedule: Q04DX003 (ip), vehicle: Klucel (hydroxypropylcellulose) (HPC)
[3] = dose: 200.0 mg/kg/injection, schedule: Q04DX003 (ip), vehicle: Klucel (hydroxypropylcellulose) (HPC)
[4] = dose: 400.0 mg/kg/injection, schedule: Q04DX003 (ip), vehicle: Klucel (hydroxypropylcellulose) (HPC)
[5] = dose: 100.0 mg/kg/injection, schedule: Q01DX009 (ip), vehicle: Klucel (hydroxypropylcellulose) (HPC)
[6] = dose: 100.0 mg/kg/injection, schedule: Q04DX002 (ip), vehicle: Klucel (hydroxypropylcellulose) (HPC)
[7] = dose: 200.0 mg/kg/injection, schedule: Q01DX009 (ip), vehicle: Klucel (hydroxypropylcellulose) (HPC)
[8] = dose: 200.0 mg/kg/injection, schedule: Q04DX002 (ip), vehicle: Klucel (hydroxypropylcellulose) (HPC)
[9] = dose: 400.0 mg/kg/injection, schedule: Q01DX009 (ip), vehicle: Klucel (hydroxypropylcellulose) (HPC)
[10] = dose: 400.0 mg/kg/injection, schedule: Q04DX002 (ip), vehicle: Klucel (hydroxypropylcellulose) (HPC)
[11] = dose: 50.0 mg/kg/injection, schedule: Q01DX009 (ip), vehicle: Klucel (hydroxypropylcellulose) (HPC)
[12] = dose: 100.0 mg/kg/injection, schedule: Q04DX003 (ip), vehicle: saline with Tween-80
[13] = dose: 200.0 mg/kg/injection, schedule: Q04DX003 (ip), vehicle: saline with Tween-80
[14] = dose: 400.0 mg/kg/injection, schedule: Q04DX003 (ip), vehicle: saline with Tween-80
[15] = dose: 50.0 mg/kg/injection, schedule: Q04DX002 (ip), vehicle: Klucel (hydroxypropylcellulose) (HPC)

Measured: T/C

COC(=O)CCc1c[nH]c2ccc(N(CCCl)CCCl)cc12
active: dose: 30.0 mg/kg/injection, schedule: Q04DX003 (ip), vehicle: saline 177 % of control
inactive: dose: 0.06 mg/kg/injection, schedule: Q01DX015 (ip), vehicle: carboxymethylcellulose (CMC) 104 % of control | dose: 0.13 mg/kg/injection, schedule: Q01DX015 (ip), vehicle: carboxymethylcellulose (CMC) 105 % of control | dose: 0.25 mg/kg/injection, schedule: Q01DX015 (ip), vehicle: carboxymethylcellulose (CMC) 110 % of control | dose: 0.5 mg/kg/injection, schedule: Q01DX015 (ip), vehicle: carboxymethylcellulose (CMC) 120 % of control | dose: 1.0 mg/kg/injection, schedule: Q01DX015 (ip), vehicle: carboxymethylcellulose (CMC) 100 % of control | dose: 1.9 mg/kg/injection, schedule: Q01DX009 (ip), vehicle: other 118 % of control | dose: 3.0 mg/kg/injection, schedule: Q01DX015 (ip), vehicle: carboxymethylcellulose (CMC) 119 % of control | dose: 3.8 mg/kg/injection, schedule: Q04DX003 (ip), vehicle: saline 108 % of control | dose: 7.5 mg/kg/injection, schedule: Q04DX003 (ip), vehicle: saline 115 % of control | dose: 15.0 mg/kg/injection, schedule: Q01DX009 (ip), vehicle: other 123 % of control

Ic1ncnc2c1ncn2C1CCCCO1 (centres undefined)
inactive: dose: 31.0 mg/kg/injection, schedule: Q01DX Z (ip), vehicle: other 111 % of control | dose: 62.0 mg/kg/injection, schedule: Q01DX Z (ip), vehicle: other 109 % of control | dose: 100.0 mg/kg/injection, schedule: Q01DX001 (ip), vehicle: saline 98 % of control | [1] 96 % of control | [2] 93 % of control | dose: 125.0 mg/kg/injection, schedule: Q01DX Z (ip), vehicle: other 103 % of control | dose: 200.0 mg/kg/injection, schedule: Q01DX001 (ip), vehicle: saline 107 % of control | dose: 200.0 mg/kg/injection, schedule: Q01DX009 (ip), vehicle: saline sonified 93 % of control | [3] 94 % of control | dose: 250.0 mg/kg/injection, schedule: Q01DX Z (ip), vehicle: other 111 % of control | dose: 375.0 mg/kg/injection, schedule: Q01DX Z (ip), vehicle: other 114 % of control | dose: 400.0 mg/kg/injection, schedule: Q01DX001 (ip), vehicle: saline 104 % of control | [4] 98 % of control | dose: 500.0 mg/kg/injection, schedule: Q01DX Z (ip), vehicle: other 121 % of control

COc1ccc(C2NCCCC2c2ccccc2)cc1 (centres undefined)
inactive: dose: 100.0 mg/kg/injection, schedule: Q01DX001 (ip), vehicle: carboxymethylcellulose (CMC) 102 % of control | dose: 200.0 mg/kg/injection, schedule: Q01DX001 (ip), vehicle: carboxymethylcellulose (CMC) 94 % of control | dose: 400.0 mg/kg/injection, schedule: Q01DX001 (ip), vehicle: carboxymethylcellulose (CMC) 110 % of control

CSc1ccc(OC(=O)Nc2cccc(F)c2)cc1
inactive: dose: 100.0 mg/kg/injection, schedule: Q01DX001 (ip), vehicle: Klucel (hydroxypropylcellulose) (HPC) 88 % of control | [5] 105 % of control and 109 % of control | [6] 101 % of control and 91 % of control | [2] 104 % of control and 124 % of control | dose: 200.0 mg/kg/injection, schedule: Q01DX001 (ip), vehicle: Klucel (hydroxypropylcellulose) (HPC) 101 % of control | [7] 100 % of control and 101 % of control | [8] 94 % of control and 98 % of control | [3] 107 % of control and 120 % of control | dose: 400.0 mg/kg/injection, schedule: Q01DX001 (ip), vehicle: Klucel (hydroxypropylcellulose) (HPC) 104 % of control | [9] 109 % of control and 90 % of control | [10] 93 % of control and 94 % of control | [4] 104 % of control

Cc1ccc([PH+](c2ccc(C)cc2)c2ccc(C)cc2)cc1.Cc1ccc([PH+](c2ccc(C)cc2)c2ccc(C)cc2)cc1.[Cl][Hg][Cl]
inactive: [11] 86 % of control | [5] 91 % of control | [7] 86 % of control

CC(C)(C)CC(C)(C)N
inactive: dose: 12.5 mg/kg/injection, schedule: Q01DX001 (ip), vehicle: Klucel (hydroxypropylcellulose) (HPC) 100 % of control | dose: 25.0 mg/kg/injection, schedule: Q01DX001 (ip), vehicle: Klucel (hydroxypropylcellulose) (HPC) 92 % of control | dose: 50.0 mg/kg/injection, schedule: Q01DX001 (ip), vehicle: Klucel (hydroxypropylcellulose) (HPC) 92 % of control

O=C(O)C1C(C(=O)O)C2(Cl)C(Cl)=C(Cl)C1(Cl)C2(Cl)Cl.[Fe] (centres undefined)
inactive: dose: 25.0 mg/kg/injection, schedule: Q01DX009 (ip), vehicle: saline sonified 93 % of control | dose: 25.0 mg/kg/injection, schedule: Q04DX003 (ip), vehicle: saline 94 % of control | dose: 44.0 mg/kg/injection, schedule: Q01DX Z (ip), vehicle: carboxymethylcellulose (CMC) 92 % of control | dose: 50.0 mg/kg/injection, schedule: Q01DX001 (ip), vehicle: saline sonified 104 % of control | dose: 50.0 mg/kg/injection, schedule: Q01DX009 (ip), vehicle: saline sonified 93 % of control | dose: 50.0 mg/kg/injection, schedule: Q04DX003 (ip), vehicle: saline 95 % of control and 86 % of control | dose: 67.0 mg/kg/injection, schedule: Q01DX Z (ip), vehicle: carboxymethylcellulose (CMC) 91 % of control | dose: 100.0 mg/kg/injection, schedule: Q01DX001 (ip), vehicle: saline sonified 102 % of control | [1] 93 % of control | dose: 100.0 mg/kg/injection, schedule: Q04DX003 (ip), vehicle: saline 103 % of control | dose: 200.0 mg/kg/injection, schedule: Q01DX001 (ip), vehicle: saline sonified 98 % of control

Cc1nc(NC(=O)CBr)[nH]c(=O)c1CCC(C)C
inactive: [12] 107 % of control | [13] 100 % of control | [14] 88 % of control

COc1cccc[n+]1CC(=O)c1ccccc1
inactive: [11] 95 % of control | [5] 98 % of control | [7] 95 % of control

COc1ccc(/C=N\NC(=O)c2ccncc2)cc1
inactive: [15] 109 % of control | [6] 113 % of control | [8] 106 % of control | [10] 118 % of control

CCCCSc1nc(SCCCC)nc(SCCCC)n1
inactive: dose: 100.0 mg/kg/injection, schedule: Q04DX002 (ip), vehicle: saline with Tween-80 96 % of control | dose: 200.0 mg/kg/injection, schedule: Q04DX002 (ip), vehicle: saline with Tween-80 111 % of control | dose: 400.0 mg/kg/injection, schedule: Q04DX002 (ip), vehicle: saline with Tween-80 89 % of control

Nc1nc(N)c2nc(CNc3ccc(C(=O)NCC(=O)O)cc3)cnc2n1
inactive: dose: 5.0 mg/kg/injection, schedule: Q01DX009 (ip), vehicle: Klucel (hydroxypropylcellulose) (HPC) 93 % of control | dose: 10.0 mg/kg/injection, schedule: Q01DX009 (ip), vehicle: Klucel (hydroxypropylcellulose) (HPC) 101 % of control | dose: 20.0 mg/kg/injection, schedule: Q01DX009 (ip), vehicle: Klucel (hydroxypropylcellulose) (HPC) 109 % of control | dose: 40.0 mg/kg/injection, schedule: Q01DX009 (ip), vehicle: Klucel (hydroxypropylcellulose) (HPC) 105 % of control

COC(=O)CC/C(C)=N\NC(=O)c1ccc[n+](C)c1
inactive: dose: 50.0 mg/kg/injection, schedule: Q01DX009 (ip), vehicle: saline 100 % of control | dose: 100.0 mg/kg/injection, schedule: Q01DX009 (ip), vehicle: saline 96 % of control | dose: 200.0 mg/kg/injection, schedule: Q01DX009 (ip), vehicle: saline 93 % of control

O=C(Nc1ccc(Br)cc1)Nc1cc([N+](=O)[O-])ccc1F
inactive: [2] 89 % of control | [3] 91 % of control | [4] 102 % of control

O=C(NOC(=O)c1ccccc1)c1ccccc1
inactive: dose: 25.0 mg/kg/injection, schedule: Q04DX002 (ip), vehicle: Klucel (hydroxypropylcellulose) (HPC) 97 % of control | [15] 97 % of control | [6] 97 % of control | [12] 103 % of control | [13] 91 % of control | [14] 101 % of control

Nc1ccc(NC(=S)S)cc1
inactive: dose: 75.0 mg/kg/injection, schedule: Q01DX001 (ip), vehicle: saline 93 % of control | dose: 150.0 mg/kg/injection, schedule: Q01DX001 (ip), vehicle: saline 93 % of control

COCc1cc(C(C)(C)C)c(O)c(C(C)(C)C)c1
inactive: [5] 94 % of control | [2] 98 % of control | [7] 89 % of control | [3] 96 % of control | [9] 89 % of control | [4] 88 % of control
